According to ChEMBL document CHEMBL1909582, “Identification of novel NK1/NK3 dual antagonists for the potential treatment of schizophrenia” (Bioorg Med Chem Lett, 2011):

Tests used:
[1] = target: T1, Neuromedin-K receptor (Homo sapiens, UniProt P29371); assay: Antagonist activity at human recombinant NK3 receptor expressed in human U20S cells assessed as effect on NKB-induced intracellular calcium level by FLIPR assay; format: functional, cell-based, U2OS
T1 sequence (P29371 whole entry): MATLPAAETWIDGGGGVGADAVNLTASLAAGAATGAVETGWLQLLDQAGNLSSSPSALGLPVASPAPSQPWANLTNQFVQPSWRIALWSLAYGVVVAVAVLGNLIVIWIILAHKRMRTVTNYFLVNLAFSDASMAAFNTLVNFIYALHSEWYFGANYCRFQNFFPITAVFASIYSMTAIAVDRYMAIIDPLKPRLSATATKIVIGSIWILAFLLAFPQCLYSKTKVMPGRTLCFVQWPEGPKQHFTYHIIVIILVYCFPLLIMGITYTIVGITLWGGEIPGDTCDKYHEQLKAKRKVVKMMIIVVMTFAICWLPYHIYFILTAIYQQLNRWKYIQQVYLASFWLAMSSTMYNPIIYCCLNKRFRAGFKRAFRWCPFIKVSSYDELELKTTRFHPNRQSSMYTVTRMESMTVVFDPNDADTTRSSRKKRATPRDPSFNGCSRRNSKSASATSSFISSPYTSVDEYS

[2] = target: T2, Substance-P receptor (Homo sapiens, UniProt P25103); assay: Antagonist activity at human recombinant NK1 receptor expressed in human U20S cells assessed as substance P maximal stimulation at 3 nM by FLIPR assay; format: functional, cell-based; conditions: U2OS
T2 sequence (P25103 whole entry): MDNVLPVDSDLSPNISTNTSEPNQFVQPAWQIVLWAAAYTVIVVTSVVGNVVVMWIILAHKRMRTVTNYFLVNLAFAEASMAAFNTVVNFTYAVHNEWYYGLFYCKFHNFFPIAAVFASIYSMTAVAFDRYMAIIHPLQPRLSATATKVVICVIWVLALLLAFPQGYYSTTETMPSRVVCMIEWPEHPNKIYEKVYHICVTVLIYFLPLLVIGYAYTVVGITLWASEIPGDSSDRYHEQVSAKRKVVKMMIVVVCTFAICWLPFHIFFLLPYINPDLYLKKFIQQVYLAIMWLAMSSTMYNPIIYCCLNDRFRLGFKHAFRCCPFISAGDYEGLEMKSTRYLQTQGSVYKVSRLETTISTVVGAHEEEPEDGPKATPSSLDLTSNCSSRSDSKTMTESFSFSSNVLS

[3] = target: T2, Substance-P receptor; assay: Antagonist activity at human recombinant NK1 receptor expressed in human U20S cells assessed as effect on substance P-induced intracellular calcium level by FLIPR assay; format: functional, cell-based, U2OS
[4] = target: T2, Substance-P receptor; assay: Antagonist activity at human recombinant NK1 receptor expressed in human U20S cells assessed as substance P maximal stimulation at 1 nM by FLIPR assay; format: functional, cell-based; conditions: U2OS
[5] = target: T3, Neuromedin-K receptor (Homo sapiens) (UniProt P29371); assay: Antagonist activity at human recombinant NK3 receptor expressed in human U20S cells assessed as neurokinin B maximal stimulation at 30 nM by FLIPR assay; conditions: U2OS
T3 sequence (whole entry): T1 sequence (P29371 whole entry)

[6] = target: T3, Neuromedin-K receptor (Homo sapiens); assay: Antagonist activity at human recombinant NK3 receptor expressed in human U20S cells assessed as neurokinin B maximal stimulation at 100 nM by FLIPR assay; conditions: U2OS

Compound	Ki [1]	Emax [2]	Ki [3]	Emax [4]	Emax [5]	Emax [6]
Cc1cc(F)ccc1-c1cc(C2CNC(=O)C2)ncc1N(C)C(=O)C(C)(C)c1cc(C(F)(F)F)cc(C(F)(F)F)c1 (stereo not drawn)	31.6 nM	20%	< 0.158 nM	64%		
Cc1cc(F)ccc1-c1cc(C2CNC(=O)C2CO)ncc1N(C)C(=O)C(C)(C)c1cc(C(F)(F)F)cc(C(F)(F)F)c1 (racemic) [listing 1 of 2 here]	7.94 nM		0.251 nM			
Cc1cc(F)ccc1-c1cc(C2CC(=O)NC2(CO)CO)ncc1N(C)C(=O)C(C)(C)c1cc(C(F)(F)F)cc(C(F)(F)F)c1 (racemic) [listing 1 of 2 here]	5.01 nM		0.1 nM			
Cc1cc(F)ccc1-c1cc(C2CC(=O)NC2(CO)CO)ncc1N(C)C(=O)C(C)(C)c1cc(C(F)(F)F)cc(C(F)(F)F)c1 (racemic) [listing 2 of 2 here]		28%		89%		
Cc1cc(F)ccc1-c1cc(C2CNC(=O)C2CO)ncc1N(C)C(=O)C(C)(C)c1cc(C(F)(F)F)cc(C(F)(F)F)c1 (racemic) [listing 2 of 2 here]		63%		109%		
Cc1cc(F)ccc1-c1cc(C2CN(C)C(=O)C2CO)ncc1N(C)C(=O)C(C)(C)c1cc(C(F)(F)F)cc(C(F)(F)F)c1 (single isomer, unassigned)	1 nM	5%	0.0631 nM	66%	67%	56%
Cc1cc(F)ccc1-c1cc(C2NC(=O)CC2CO)ncc1N(C)C(=O)C(C)(C)c1cc(C(F)(F)F)cc(C(F)(F)F)c1 (single isomer, unassigned; 8a) [listing 1 of 2 here]	39.8 nM		0.0794 nM			
Cc1cc(F)ccc1-c1cc(C2NC(=O)CC2CO)ncc1N(C)C(=O)C(C)(C)c1cc(C(F)(F)F)cc(C(F)(F)F)c1 (single isomer, unassigned; 8a) [listing 2 of 2 here]		25%		64%		
Cc1cc(F)ccc1-c1cc(C2NC(=O)CC2CO)ncc1N(C)C(=O)C(C)(C)c1cc(C(F)(F)F)cc(C(F)(F)F)c1 (single isomer, unassigned; 8b)	501 nM		0.501 nM			
Cc1cc(F)ccc1-c1cc(C2NC(=O)CC2CO)ncc1N(C)C(=O)C(C)(C)c1cc(C(F)(F)F)cc(C(F)(F)F)c1 (single isomer, unassigned; 9a) [listing 1 of 2 here]	5.01 nM		0.251 nM			
Cc1cc(F)ccc1-c1cc(C2NC(=O)CC2CO)ncc1N(C)C(=O)C(C)(C)c1cc(C(F)(F)F)cc(C(F)(F)F)c1 (single isomer, unassigned; 9a) [listing 2 of 2 here]		60%		98%	83%	74%
Cc1cc(F)ccc1-c1cc(C2NC(=O)CC2CO)ncc1N(C)C(=O)C(C)(C)c1cc(C(F)(F)F)cc(C(F)(F)F)c1 (single isomer, unassigned; 9b) [listing 1 of 2 here]	31.6 nM		0.316 nM			
Cc1cc(F)ccc1-c1cc(C2NC(=O)CC2CO)ncc1N(C)C(=O)C(C)(C)c1cc(C(F)(F)F)cc(C(F)(F)F)c1 (single isomer, unassigned; 9b) [listing 2 of 2 here]		30%		79%		
Cc1cc(F)ccc1-c1cc(C2CC(=O)NC2CO)ncc1N(C)C(=O)C(C)(C)c1cc(C(F)(F)F)cc(C(F)(F)F)c1 (single isomer, unassigned; 21a)	25.1 nM		< 0.158 nM			
Cc1cc(F)ccc1-c1cc(C2CC(=O)NC2CO)ncc1N(C)C(=O)C(C)(C)c1cc(C(F)(F)F)cc(C(F)(F)F)c1 (single isomer, unassigned; 21b)	794 nM		< 0.158 nM			
Cc1cc(F)ccc1-c1cc(C2CC(=O)NC2CO)ncc1N(C)C(=O)C(C)(C)c1cc(C(F)(F)F)cc(C(F)(F)F)c1 (single isomer, unassigned; 22a) [listing 1 of 2 here]	2 nM		0.251 nM			
Cc1cc(F)ccc1-c1cc(C2CC(=O)NC2CO)ncc1N(C)C(=O)C(C)(C)c1cc(C(F)(F)F)cc(C(F)(F)F)c1 (single isomer, unassigned; 22a) [listing 2 of 2 here]		39%		103%	101%	76%
Cc1cc(F)ccc1-c1cc(C2CC(=O)NC2CO)ncc1N(C)C(=O)C(C)(C)c1cc(C(F)(F)F)cc(C(F)(F)F)c1 (single isomer, unassigned; 22b)	20 nM		0.251 nM			
Cc1cc(F)ccc1-c1cc(C2CNC(=O)C2CO)ncc1N(C)C(=O)C(C)(C)c1cc(C(F)(F)F)cc(C(F)(F)F)c1 (single isomer, unassigned; enantiomer 1) [listing 1 of 2 here]	79.4 nM		0.0501 nM			
Cc1cc(F)ccc1-c1cc(C2CC(=O)NC2(CO)CO)ncc1N(C)C(=O)C(C)(C)c1cc(C(F)(F)F)cc(C(F)(F)F)c1 (single isomer, unassigned; enantiomer 1)	6.31 nM		< 0.158 nM			
Cc1cc(F)ccc1-c1cc(C2CNC(=O)C2CO)ncc1N(C)C(=O)C(C)(C)c1cc(C(F)(F)F)cc(C(F)(F)F)c1 (single isomer, unassigned; enantiomer 1) [listing 2 of 2 here]		19%		103%		
Cc1cc(F)ccc1-c1cc(C2CNC(=O)C2CO)ncc1N(C)C(=O)C(C)(C)c1cc(C(F)(F)F)cc(C(F)(F)F)c1 (single isomer, unassigned; enantiomer 2) [listing 1 of 2 here]	1.58 nM		0.158 nM			
Cc1cc(F)ccc1-c1cc(C2CC(=O)NC2(CO)CO)ncc1N(C)C(=O)C(C)(C)c1cc(C(F)(F)F)cc(C(F)(F)F)c1 (single isomer, unassigned; enantiomer 2)	631 nM		< 0.158 nM			
Cc1cc(F)ccc1-c1cc(C2CNC(=O)C2CO)ncc1N(C)C(=O)C(C)(C)c1cc(C(F)(F)F)cc(C(F)(F)F)c1 (single isomer, unassigned; enantiomer 2) [listing 2 of 2 here]		37%		101%		
